Data taken from paper PMC9516332 (Frontiers in Oncology, 2022).
pIC50: −log10 of the molar value. Read-outs that look alike come from different tables or passages of the source.

Experiments:
[1] = test system: AP-1060 (ETV6-NTRK3); experiment: Cell viability assay; conditions: read-out: IC50 in cell proliferation assay
[2] = test system: 134 cancer cell lines; experiment: Cell viability assay (ATPlite, 72 hours), IC50 on cancer cell line panel

Measured: pIC50

CCc1cc2c(cc1N1CCC(N3CCOCC3)CC1)C(C)(C)c1[nH]c3cc(C#N)ccc3c1C2=O [alectinib]
5.46: [2]; Homo sapiens, Daoy, read-out: IC50 in cell proliferation assay
5.52: [2]; Homo sapiens, CCF-STTG1, read-out: IC50 in cell proliferation assay
5.82: [2]; Homo sapiens, Kasumi 1, read-out: IC50 in cell proliferation assay
6.35: [2]; Homo sapiens, KG-1, read-out: IC50 in cell proliferation assay
5.70: [2]; Homo sapiens, C-33-A, read-out: IC50 in cell proliferation assay
5.88: [2]; Homo sapiens, HCC4006, read-out: IC50 in cell proliferation assay | [2]; Homo sapiens, HEC-1, read-out: IC50 in cell proliferation assay
5.31: [2]; Homo sapiens, Hs-578T, read-out: IC50 in cell proliferation assay
5.95: [1] | [2]; Homo sapiens, LC-2-ad, read-out: IC50 in cell proliferation assay
< 5.00: [2]; HEC-6, read-out: IC50 in cell proliferation assay | [2]; Homo sapiens, 786-0, read-out: IC50 in cell proliferation assay | [2]; Homo sapiens, A 172, read-out: IC50 in cell proliferation assay | [2]; Homo sapiens, A204, read-out: IC50 in cell proliferation assay | [2]; Homo sapiens, A498, read-out: IC50 in cell proliferation assay | [2]; Homo sapiens, A549, read-out: IC50 in cell proliferation assay | [2]; Homo sapiens, A704, read-out: IC50 in cell proliferation assay | [2]; Homo sapiens, A-375, read-out: IC50 in cell proliferation assay | [2]; Homo sapiens, A-427, read-out: IC50 in cell proliferation assay | [2]; Homo sapiens, AN3-CA, read-out: IC50 in cell proliferation assay | [2]; Homo sapiens, ASPC1, read-out: IC50 in cell proliferation assay | [2]; Homo sapiens, AU565, read-out: IC50 in cell proliferation assay | [2]; Homo sapiens, BT-20, read-out: IC50 in cell proliferation assay | [2]; Homo sapiens, BT-474, read-out: IC50 in cell proliferation assay | [2]; Homo sapiens, BXPC-3, read-out: IC50 in cell proliferation assay | [2]; Homo sapiens, CCRF-CEM, read-out: IC50 in cell proliferation assay | [2]; Homo sapiens, COLO 205, read-out: IC50 in cell proliferation assay | [2]; Homo sapiens, COLO-829, read-out: IC50 in cell proliferation assay | [2]; Homo sapiens, DLD-1, read-out: IC50 in cell proliferation assay | [2]; Homo sapiens, DU-145, read-out: IC50 in cell proliferation assay | [2]; Homo sapiens, DU-4475, read-out: IC50 in cell proliferation assay | [2]; Homo sapiens, FaDu, read-out: IC50 in cell proliferation assay | [2]; Homo sapiens, G-361, read-out: IC50 in cell proliferation assay | [2]; Homo sapiens, HCT-15, read-out: IC50 in cell proliferation assay | [2]; Homo sapiens, HCT-116, read-out: IC50 in cell proliferation assay | [2]; Homo sapiens, HEC-1B, read-out: IC50 in cell proliferation assay | [2]; Homo sapiens, HL-60, read-out: IC50 in cell proliferation assay | [2]; Homo sapiens, HT, read-out: IC50 in cell proliferation assay | [2]; Homo sapiens, Hs746T, read-out: IC50 in cell proliferation assay | [2]; Homo sapiens, HuTu80, read-out: IC50 in cell proliferation assay | [2]; Homo sapiens, J82, read-out: IC50 in cell proliferation assay | [2]; Homo sapiens, Jurkat E6.1, read-out: IC50 in cell proliferation assay | [2]; Homo sapiens, K562, read-out: IC50 in cell proliferation assay | [2]; Homo sapiens, KATO III, read-out: IC50 in cell proliferation assay | [2]; Homo sapiens, KLE, read-out: IC50 in cell proliferation assay | [2]; Homo sapiens, KMS-11, read-out: IC50 in cell proliferation assay | [2]; Homo sapiens, KU812, read-out: IC50 in cell proliferation assay | [2]; Homo sapiens, LNCaP-Clone-FGC, read-out: IC50 in cell proliferation assay | [2]; Homo sapiens, LS174T, read-out: IC50 in cell proliferation assay | [2]; Homo sapiens, LS-411N, read-out: IC50 in cell proliferation assay
5.93: [2]; Homo sapiens, CAL-27, read-out: IC50 in cell proliferation assay
5.57: [2]; Homo sapiens, BT-549, read-out: IC50 in cell proliferation assay
5.12: [2]; Homo sapiens, HT-1080, read-out: IC50 in cell proliferation assay
6.32: [2]; Homo sapiens, DoTc2-4510, read-out: IC50 in cell proliferation assay
5.80: [2]; Homo sapiens, HCC827, read-out: IC50 in cell proliferation assay
5.45: [2]; Homo sapiens, ACHN, read-out: IC50 in cell proliferation assay
5.04: [2]; Homo sapiens, 769-P, read-out: IC50 in cell proliferation assay
6.71: [2]; Homo sapiens, EOL1, read-out: IC50 in cell proliferation assay
